This note sets out measurements from article PMC10742508, “The Structure and Nucleotide-Binding Characteristics of Regulated Cystathionine β-Synthase Domain-Containing Pyrophosphatase without One Catalytic Domain” (International Journal of Molecular Sciences, 2023).

Holding throughout (type): binding
Assay [1] deals with T1, ΔdhPPase (Desulfitobacterium hafniense, UniProt B8FP42, DEL425-544).
T1 construct: gene Dhaf_1515
T1 sequence (B8FP42 1-423): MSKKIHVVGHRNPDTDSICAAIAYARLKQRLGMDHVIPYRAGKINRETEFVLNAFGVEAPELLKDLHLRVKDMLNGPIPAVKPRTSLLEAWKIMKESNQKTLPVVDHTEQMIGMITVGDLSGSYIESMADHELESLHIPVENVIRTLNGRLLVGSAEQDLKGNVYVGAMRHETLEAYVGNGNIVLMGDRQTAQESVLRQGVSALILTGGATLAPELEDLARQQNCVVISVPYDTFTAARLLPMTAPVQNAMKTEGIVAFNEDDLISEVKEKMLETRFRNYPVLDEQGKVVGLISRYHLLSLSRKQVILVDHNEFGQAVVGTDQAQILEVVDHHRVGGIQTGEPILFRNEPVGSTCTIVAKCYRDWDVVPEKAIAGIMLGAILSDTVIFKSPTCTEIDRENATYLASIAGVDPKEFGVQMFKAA
Briefly: isothermal titration calorimetry, single-site model. To be noted: read-out: KN. An excerpt: isothermal titration calorimetry, single-site model on ΔdhPPase
(In general: Isothermal titration calorimetry measures the heat released or taken up as one component is titrated into another.)

In assay [2] the target is T2, CDC (separate regulatory part of dhPPase) (Desulfitobacterium hafniense, UniProt B8FP42).
T2 construct: gene Dhaf_1515; regulatory insert only (CBS1-DRTGG-CBS2)
Put plainly: ThermoFluor, SYPRO Orange. To be noted: 2 mM MgCl2, 0.1 mM CoCl2, 150 mM KCl, pH 7.2. An excerpt: ThermoFluor, SYPRO Orange on CDC (separate regulatory part of dhPPase)

The target in assay [3] is T3, dhPPase (full-size CBS-PPase) (Desulfitobacterium hafniense, UniProt B8FP42).
T3 construct: gene Dhaf_1515
T3 sequence (B8FP42 entry or part of it): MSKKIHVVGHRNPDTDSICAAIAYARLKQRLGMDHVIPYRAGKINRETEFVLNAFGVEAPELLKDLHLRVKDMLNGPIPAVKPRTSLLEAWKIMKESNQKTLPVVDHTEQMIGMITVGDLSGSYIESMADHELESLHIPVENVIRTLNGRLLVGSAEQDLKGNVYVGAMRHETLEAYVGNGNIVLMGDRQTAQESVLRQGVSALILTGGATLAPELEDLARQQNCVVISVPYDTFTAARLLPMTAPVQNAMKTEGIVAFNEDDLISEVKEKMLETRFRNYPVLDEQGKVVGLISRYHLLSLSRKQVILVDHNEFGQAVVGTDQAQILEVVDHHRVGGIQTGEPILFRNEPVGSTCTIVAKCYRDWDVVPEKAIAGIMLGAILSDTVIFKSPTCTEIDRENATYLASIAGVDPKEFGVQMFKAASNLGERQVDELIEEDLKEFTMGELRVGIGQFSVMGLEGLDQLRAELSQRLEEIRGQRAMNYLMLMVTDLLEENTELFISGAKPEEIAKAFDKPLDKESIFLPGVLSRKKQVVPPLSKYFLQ
Put plainly: isothermal titration calorimetry, single-site model. To be noted: read-out: KN. An excerpt: isothermal titration calorimetry, single-site model on dhPPase (full-size CBS-PPase)

Assay [4] concerns the target T4, ΔdhPPase (Desulfitobacterium hafniense, UniProt B8FP42).
T4 construct: gene Dhaf_1515
T4 sequence (B8FP42 1-423): T1 sequence (B8FP42 1-423)
Put plainly: ThermoFluor, SYPRO Orange. To be noted: 200 µM AMP, 2 mM MgCl2, 0.1 mM CoCl2, 150 mM KCl, pH 7.2; peak II = regulatory part. From the text: ThermoFluor, SYPRO Orange on ΔdhPPase

In assay [5] the target is T3, dhPPase (full-size CBS-PPase). Put plainly: ThermoFluor, SYPRO Orange. To be noted: 200 µM AMP, 2 mM MgCl2, 0.1 mM CoCl2, 150 mM KCl, pH 7.2; peak II = regulatory part. From the text: ThermoFluor, SYPRO Orange on dhPPase (full-size CBS-PPase)

As for `Nc1ncnc2c1ncn2[C@@H]1O[C@H](COP(=O)(O)OP(=O)(O)OP(=O)(O)OP(=O)(O)OC[C@H]2O[C@@H](n3cnc4c(N)ncnc43)[C@H](O)[C@@H]2O)[C@@H](O)[C@H]1O` [Ap4A], the results for the Kd in assay [1] and in assay [3] were < 10 nM and 10 to 100 nM, respectively. The “Tm, °C / CDC” value in assay [2] (20 µM Ap4A) turned out to be 61.5 °C.

As to `Nc1ncnc2c1ncn2[C@@H]1O[C@H](COP(=O)(O)O)[C@@H](O)[C@H]1O` [AMP], the “Tm, °C / ΔdhPPase” value in assay [4] was found to be 68.6 °C. Further, the “Tm, °C / CDC” value in assay [2] (200 µM AMP) was found to be 66.5 °C. For the same compound, in assay [5], the “Tm, °C / dhPPase” value amounted to 67.4 °C.
